Measured values taken from article PMC3475186 (Cell, 2012).

Target: hTPC2 (TPC2; TPCN2; hTPC2-EGFP) (Homo sapiens, UniProt Q8NHX9)
Test: whole-endolysosome patch clamp
Format: cell-based

Sequence of hTPC2 (TPC2; TPCN2; hTPC2-EGFP) (Q8NHX9 whole entry): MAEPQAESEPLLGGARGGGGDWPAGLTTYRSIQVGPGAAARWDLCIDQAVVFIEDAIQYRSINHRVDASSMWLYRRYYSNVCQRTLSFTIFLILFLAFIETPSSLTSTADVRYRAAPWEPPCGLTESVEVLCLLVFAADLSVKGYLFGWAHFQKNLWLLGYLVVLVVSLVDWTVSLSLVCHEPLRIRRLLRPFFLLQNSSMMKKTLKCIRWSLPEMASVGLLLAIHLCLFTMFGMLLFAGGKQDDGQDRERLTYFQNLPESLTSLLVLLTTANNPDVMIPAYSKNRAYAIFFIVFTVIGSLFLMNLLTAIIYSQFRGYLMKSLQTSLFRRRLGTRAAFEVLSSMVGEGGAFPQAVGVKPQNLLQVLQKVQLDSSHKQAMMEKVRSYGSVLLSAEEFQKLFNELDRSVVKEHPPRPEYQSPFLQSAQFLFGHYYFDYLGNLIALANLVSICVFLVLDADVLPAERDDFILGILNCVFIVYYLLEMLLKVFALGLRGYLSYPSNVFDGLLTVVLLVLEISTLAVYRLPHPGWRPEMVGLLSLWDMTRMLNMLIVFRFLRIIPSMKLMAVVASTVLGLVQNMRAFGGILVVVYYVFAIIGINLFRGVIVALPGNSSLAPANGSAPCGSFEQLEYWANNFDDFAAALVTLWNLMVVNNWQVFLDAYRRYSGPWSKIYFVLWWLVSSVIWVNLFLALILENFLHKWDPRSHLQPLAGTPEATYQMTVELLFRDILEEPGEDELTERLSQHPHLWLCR

EC50: 390 ± 94 nM
SMILES: CCCCCCCC(=O)OC[C@H](COP(=O)(O)O[C@@H]1[C@H](O)[C@H](OP(=O)(O)O)[C@@H](O)[C@H](OP(=O)(O)O)[C@H]1O)OC(=O)CCCCCCC [diC8 PI(3,5)P2]
